# Data taken from US20250197409A1, “BIFUNCTIONAL COMPOUND AND PHARMACEUTICAL COMPOSITION COMPRISING THE BIFUNCTIONAL COMPOUND, AND METHOD FOR TREATING ANDROGEN RECEPTOR RELATED DISEASE BY USING THE SAME” (ANHORN MEDICINES CO., LTD., priority 2022, published 2025).
# Where two headings read alike, the source gives them in different places.
# Biological target: T1, androgen receptor (Homo sapiens, UniProt P10275, T878A)
# T1 construct: host or cells: LNCaP.FGC
# Experiment: Androgen receptor degradation assay using Western blot analysis
# Format: cell-based
# Summary of the method: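 LNCaP.FGC cells (2×10^5/well) treated with 10-fold serial dilutions in RPMI from 100 nM stock; untreated cells as negative control. AR Western signal normalized to GAPDH, expressed as % remaining versus untreated (100%). DC50 derived from calibration curve of serial dilutions.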
# [1] = LNCaP.FGC cells, serial 10x dilutions from 100 nM; read-out: AR DC50 (concentration needed for 50% AR degradation)
# [2] = read-out: AR DC50 (concentration needed for 50% AR degradation); LNCaP.FGC cells, serial 10x dilutions from 100 nM
# T1 sequence (P10275 whole entry T878A): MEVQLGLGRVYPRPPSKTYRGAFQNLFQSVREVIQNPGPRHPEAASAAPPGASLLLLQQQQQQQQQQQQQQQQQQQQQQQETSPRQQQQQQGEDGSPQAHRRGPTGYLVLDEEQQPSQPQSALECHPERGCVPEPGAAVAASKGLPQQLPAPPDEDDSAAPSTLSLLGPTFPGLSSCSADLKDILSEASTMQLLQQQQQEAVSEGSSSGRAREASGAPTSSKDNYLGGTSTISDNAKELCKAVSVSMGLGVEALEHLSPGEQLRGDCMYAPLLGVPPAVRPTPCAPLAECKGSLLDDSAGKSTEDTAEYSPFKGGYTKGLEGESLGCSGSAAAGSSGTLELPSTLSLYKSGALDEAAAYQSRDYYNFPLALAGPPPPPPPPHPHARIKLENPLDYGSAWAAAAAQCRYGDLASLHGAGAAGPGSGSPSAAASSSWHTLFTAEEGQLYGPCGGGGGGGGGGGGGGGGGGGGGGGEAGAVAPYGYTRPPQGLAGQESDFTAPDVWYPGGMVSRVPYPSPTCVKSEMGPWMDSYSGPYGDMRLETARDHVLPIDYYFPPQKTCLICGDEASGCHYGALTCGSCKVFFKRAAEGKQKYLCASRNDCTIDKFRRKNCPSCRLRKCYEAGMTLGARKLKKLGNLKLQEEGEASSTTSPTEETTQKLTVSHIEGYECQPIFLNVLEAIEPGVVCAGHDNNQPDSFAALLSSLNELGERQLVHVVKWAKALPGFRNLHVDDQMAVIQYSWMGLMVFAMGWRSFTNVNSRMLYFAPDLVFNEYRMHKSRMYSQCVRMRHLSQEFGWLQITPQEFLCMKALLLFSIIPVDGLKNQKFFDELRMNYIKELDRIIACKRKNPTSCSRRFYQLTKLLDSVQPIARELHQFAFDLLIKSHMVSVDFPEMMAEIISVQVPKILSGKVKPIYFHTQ
# T1 sequence (Q96SW2 whole entry partner): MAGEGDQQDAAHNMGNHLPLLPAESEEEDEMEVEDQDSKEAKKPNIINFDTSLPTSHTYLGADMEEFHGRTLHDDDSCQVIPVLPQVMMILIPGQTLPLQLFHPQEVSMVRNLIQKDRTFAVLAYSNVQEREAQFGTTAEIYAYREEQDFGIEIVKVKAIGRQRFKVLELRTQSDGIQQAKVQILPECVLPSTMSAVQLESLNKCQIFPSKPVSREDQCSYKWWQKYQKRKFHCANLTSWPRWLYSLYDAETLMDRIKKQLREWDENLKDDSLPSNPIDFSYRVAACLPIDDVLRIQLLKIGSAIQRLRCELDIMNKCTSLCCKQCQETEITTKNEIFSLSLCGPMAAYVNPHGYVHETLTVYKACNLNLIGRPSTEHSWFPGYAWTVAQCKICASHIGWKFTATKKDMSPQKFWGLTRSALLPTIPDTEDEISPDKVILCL
DC50 [1] [µM],SMILES,DC50 [2] [µM]
0.025 to 0.1,Cn1c2c(c3ccc(OCCCOC4CC5(CCN(c6ccc(C(=O)N[C@H]7CC[C@H](Oc8ccc(C#N)c(Cl)c8)CC7)nn6)C5)C4)cc31)C(=O)N(C1CCC(=O)NC1=O)C2=O (stereo partly drawn) [Compound 179],–
–,CCn1c2c(c3ccc(OCCN4CCC5(CC4)CCN(c4ccc(C(=O)N[C@H]6CC[C@H](N(C)c7ccc(C#N)c(Cl)c7)CC6)nn4)CC5)cc31)C(=O)N(C1CCC(=O)NC1=O)C2=O (stereo partly drawn) [Compound 180],< 0.01
–,CCn1c2c(c3ccc(OCCCN4CCC5(CC4)CCN(c4ccc(C(=O)N[C@H]6CC[C@H](N(C)c7ccc(C#N)c(Cl)c7)CC6)nn4)CC5)cc31)C(=O)N(C1CCC(=O)NC1=O)C2=O (stereo partly drawn) [Compound 181],< 0.01
–,CCn1c2c(c3ccc(OCCN4CCC5(CC4)CCN(c4ccc(C(=O)N[C@H]6CC[C@H](Oc7ccc(C#N)c(Cl)c7)CC6)nn4)CC5)cc31)C(=O)N(C1CCC(=O)NC1=O)C2=O (stereo partly drawn) [Compound 182],< 0.01
–,CCn1c2c(c3ccc(OCCCN4CCC5(CC4)CCN(c4ccc(C(=O)N[C@H]6CC[C@H](Oc7ccc(C#N)c(Cl)c7)CC6)nn4)CC5)cc31)C(=O)N(C1CCC(=O)NC1=O)C2=O (stereo partly drawn) [Compound 183],0.01 to 0.025
–,CCn1c2c(c3ccc(OCCCCOC4CCN(c5ccc(C(=O)N[C@H]6CC[C@H](Oc7ccc(C#N)c(Cl)c7)CC6)nn5)CC4)cc31)C(=O)N(C1CCC(=O)NC1=O)C2=O (stereo partly drawn) [Compound 185],0.025 to 0.1
–,Cn1c2c(c3ccc(OCCCCOC4CCN(c5ccc(C(=O)N[C@H]6CC[C@H](N(C)c7ccc(C#N)c(Cl)c7)CC6)nn5)CC4)cc31)C(=O)N(C1CCC(=O)NC1=O)C2=O (stereo partly drawn) [Compound 186],0.01 to 0.025
0.025 to 0.1,Cn1c2c(c3ccc(OCCCCOC4CCN(c5ccc(C(=O)N[C@H]6CC[C@H](Oc7ccc(C#N)c(Cl)c7)CC6)nn5)CC4)cc31)C(=O)N(C1CCC(=O)NC1=O)C2=O (stereo partly drawn) [Compound 187],–
0.025 to 0.1,CC(COc1ccc2c3c(n(C)c2c1)C(=O)N(C1CCC(=O)NC1=O)C3=O)CN1CCN(c2ccc(C(=O)N[C@H]3CC[C@H](Oc4ccc(C#N)c(Cl)c4)CC3)nn2)CC1 (stereo partly drawn) [Compound 188],–
–,CC(COc1ccc2c3c(n(C)c2c1)C(=O)N(C1CCC(=O)NC1=O)C3=O)CN1CCN(c2ccc(C(=O)N[C@H]3CC[C@H](N(C)c4ccc(C#N)c(Cl)c4)CC3)nn2)CC1 (stereo partly drawn) [Compound 189],0.01 to 0.025
–,CCn1c2c(c3ccc(OCCCN4CC=C(c5ccc(C(=O)N[C@H]6CC[C@H](Oc7ccc(C#N)c(Cl)c7)CC6)nn5)CC4)cc31)C(=O)N(C1CCC(=O)NC1=O)C2=O (stereo partly drawn) [Compound 190],0.01 to 0.025
–,CCn1c2c(c3ccc(OCCN4CC=C(c5ccc(C(=O)N[C@H]6CC[C@H](Oc7ccc(C#N)c(Cl)c7)CC6)nn5)CC4)cc31)C(=O)N(C1CCC(=O)NC1=O)C2=O (stereo partly drawn) [Compound 191],< 0.01
–,CCn1c2c(c3ccc(OCC(C)CN4CCN(c5ccc(C(=O)N[C@H]6CC[C@H](Oc7ccc(C#N)c(Cl)c7)CC6)nn5)CC4)cc31)C(=O)N(C1CCC(=O)NC1=O)C2=O (stereo partly drawn) [Compound 192],0.025 to 0.1
–,CCn1c2c(c3ccc(OCC(C)CN4CCN(c5ccc(C(=O)N[C@H]6CC[C@H](N(C)c7ccc(C#N)c(Cl)c7)CC6)nn5)CC4)cc31)C(=O)N(C1CCC(=O)NC1=O)C2=O (stereo partly drawn) [Compound 193],0.025 to 0.1
0.01 to 0.025,Cn1c2c(c3ccc(OCCCN4CCC5(CC4)CCN(c4ccc(C(=O)N[C@H]6CC[C@H](Oc7ccc(C#N)c(Cl)c7)CC6)nn4)CC5)cc31)C(=O)N(C1CCC(=O)NC1=O)C2=O (stereo partly drawn) [Compound 194],–
0.01 to 0.025,Cn1c2c(c3ccc(OCCN4CCC5(CC4)CCN(c4ccc(C(=O)N[C@H]6CC[C@H](Oc7ccc(C#N)c(Cl)c7)CC6)nn4)CC5)cc31)C(=O)N(C1CCC(=O)NC1=O)C2=O (stereo partly drawn) [Compound 195],–
< 0.01,Cn1c2c(c3ccc(OCCCN4CC=C(c5ccc(C(=O)N[C@H]6CC[C@H](Oc7ccc(C#N)c(Cl)c7)CC6)nn5)CC4)cc31)C(=O)N(C1CCC(=O)NC1=O)C2=O (stereo partly drawn) [Compound 196],–
0.01 to 0.025,Cn1c2c(c3ccc(OCCN4CC=C(c5ccc(C(=O)N[C@H]6CC[C@H](Oc7ccc(C#N)c(Cl)c7)CC6)nn5)CC4)cc31)C(=O)N(C1CCC(=O)NC1=O)C2=O (stereo partly drawn) [Compound 197],–
–,Cn1c2c(c3ccc(OCCCN4CCC5(CC4)CCN(c4ccc(C(=O)N[C@H]6CC[C@H](N(C)c7ccc(C#N)c(Cl)c7)CC6)nn4)CC5)cc31)C(=O)N(C1CCC(=O)NC1=O)C2=O (stereo partly drawn) [Compound 198],< 0.01
–,Cn1c2c(c3ccc(OCCN4CCC5(CC4)CCN(c4ccc(C(=O)N[C@H]6CC[C@H](N(C)c7ccc(C#N)c(Cl)c7)CC6)nn4)CC5)cc31)C(=O)N(C1CCC(=O)NC1=O)C2=O (stereo partly drawn) [Compound 199],0.01 to 0.025
0.01 to 0.025,CC(COc1ccc2c3c(n(C)c2c1)C(=O)N(C1CCC(=O)NC1=O)C3=O)CN1CC=C(c2ccc(C(=O)N[C@H]3CC[C@H](Oc4ccc(C#N)c(Cl)c4)CC3)nn2)CC1 (stereo partly drawn) [Compound 200],–

DC50 [1] [µM],SMILES,DC50 [2] [µM]
–,CCn1c2c(c3ccc(OCCCN4CC=C(c5ccc(C(=O)N[C@H]6CC[C@H](N(C)c7ccc(C#N)c(Cl)c7)CC6)nn5)CC4)cc31)C(=O)N(C1CCC(=O)NC1=O)C2=O (stereo partly drawn) [Compound 201],0.01 to 0.025
–,CCn1c2c(c3ccc(OCCN4CC=C(c5ccc(C(=O)N[C@H]6CC[C@H](N(C)c7ccc(C#N)c(Cl)c7)CC6)nn5)CC4)cc31)C(=O)N(C1CCC(=O)NC1=O)C2=O (stereo partly drawn) [Compound 202],0.025 to 0.1
–,CCn1c2c(c3ccc(OC4CCN(CC5CCN(c6ccc(C(=O)N[C@H]7CC[C@H](Oc8ccc(C#N)c(Cl)c8)CC7)nn6)CC5)CC4)cc31)C(=O)N(C1CCC(=O)NC1=O)C2=O (stereo partly drawn) [Compound 203],< 0.01
–,CCn1c2c(c3ccc(OC4CCN(CC5CCN(c6ccc(C(=O)N[C@H]7CC[C@@H](Oc8ccc(C#N)c(Cl)c8)CC7)nn6)CC5)CC4)cc31)C(=O)N(C1CCC(=O)NC1=O)C2=O (stereo partly drawn) [Compound 204],0.01 to 0.025
–,CCn1c2c(c3ccc(OCCCN4CCN(c5ccc(C(=O)N[C@H]6CC[C@H](Oc7ccc(C#N)c(Cl)c7)CC6)nn5)CC4)cc31)C(=O)N(C1CCC(=O)NC1=O)C2=O (stereo partly drawn) [Compound 205],< 0.01
–,CCn1c2c(c3ccc(OCCN4CCC(c5ccc(C(=O)N[C@H]6CC[C@H](Oc7ccc(C#N)c(Cl)c7)CC6)nn5)CC4)cc31)C(=O)N(C1CCC(=O)NC1=O)C2=O (stereo partly drawn) [Compound 206],0.01 to 0.025
< 0.01,Cn1c2c(c3ccc(OCCCN4CCN(c5ccc(C(=O)N[C@H]6CC[C@H](Oc7ccc(C#N)c(Cl)c7)CC6)nn5)CC4)cc31)C(=O)N(C1CCC(=O)NC1=O)C2=O (stereo partly drawn) [Compound 207],–
0.01 to 0.025,Cn1c2c(c3ccc(OCCN4CCC(c5ccc(C(=O)N[C@H]6CC[C@H](Oc7ccc(C#N)c(Cl)c7)CC6)nn5)CC4)cc31)C(=O)N(C1CCC(=O)NC1=O)C2=O (stereo partly drawn) [Compound 208],–
–,CCn1c2c(c3ccc(OC(C)CCN4CCN(c5ccc(C(=O)N[C@H]6CC[C@H](Oc7ccc(C#N)c(Cl)c7)CC6)nn5)CC4)cc31)C(=O)N(C1CCC(=O)NC1=O)C2=O (stereo partly drawn) [Compound 209],0.01 to 0.025
–,CCn1c2c(c3ccc(OC4CCN(CC5CN(c6ccc(C(=O)N[C@H]7CC[C@H](Oc8ccc(C#N)c(Cl)c8)CC7)nn6)C5)CC4)cc31)C(=O)N(C1CCC(=O)NC1=O)C2=O (stereo partly drawn) [Compound 210],0.01 to 0.025
–,CCn1c2c(c3ccc(OC(C)CCN4CCC(c5ccc(C(=O)N[C@H]6CC[C@H](Oc7ccc(C#N)c(Cl)c7)CC6)nn5)CC4)cc31)C(=O)N(C1CCC(=O)NC1=O)C2=O (stereo partly drawn) [Compound 211],< 0.01
–,CCn1c2c(c3ccc(OC4CCN(CC5CCN(c6ccc(C(=O)N[C@H]7C(C)(C)[C@H](Oc8ccc(C#N)c(Cl)c8)C7(C)C)nn6)CC5)CC4)cc31)C(=O)N(C1CCC(=O)NC1=O)C2=O (stereo partly drawn) [Compound 212],0.025 to 0.1
–,CCn1c2c(c3ccc(OC4CCN(CC5CCN(c6ccc(C(=O)N[C@H]7C(C)(C)[C@@H](Oc8ccc(C#N)c(Cl)c8)C7(C)C)nn6)CC5)CC4)cc31)C(=O)N(C1CCC(=O)NC1=O)C2=O (stereo partly drawn) [Compound 213],0.01 to 0.025
–,CCn1c2c(c3ccc(OC4CCN(CC5CCN(c6ccc(C(=O)N[C@H]7C(C)(C)[C@H](Oc8ccc(C#N)c(Cl)c8)C7(C)C)cc6)CC5)CC4)cc31)C(=O)N(C1CCC(=O)NC1=O)C2=O (stereo partly drawn) [Compound 214],> 0.1
0.01 to 0.025,Cn1c2c(c3ccc(OC4CCN(CC5CCN(c6ccc(C(=O)N[C@H]7CC[C@H](Oc8ccc(C#N)c(Cl)c8)CC7)nn6)CC5)CC4)cc31)C(=O)N(C1CCC(=O)NC1=O)C2=O (stereo partly drawn) [Compound 215],–
< 0.01,Cn1c2c(c3ccc(OC4CCN(CC5CCN(c6ccc(C(=O)N[C@H]7CC[C@@H](Oc8ccc(C#N)c(Cl)c8)CC7)nn6)CC5)CC4)cc31)C(=O)N(C1CCC(=O)NC1=O)C2=O (stereo partly drawn) [Compound 216],–
0.01 to 0.025,Cn1c2c(c3ccc(OC4CCN(CC5CN(c6ccc(C(=O)N[C@H]7CC[C@H](Oc8ccc(C#N)c(Cl)c8)CC7)nn6)C5)CC4)cc31)C(=O)N(C1CCC(=O)NC1=O)C2=O (stereo partly drawn) [Compound 217],–
0.025 to 0.1,Cn1c2c(c3ccc(OC4CCN(CC5CCN(c6ccc(C(=O)N[C@H]7C(C)(C)[C@H](Oc8ccc(C#N)c(Cl)c8)C7(C)C)cc6)CC5)CC4)cc31)C(=O)N(C1CCC(=O)NC1=O)C2=O (stereo partly drawn) [Compound 219],–
–,CCn1c2c(c3ccc(OCCCN4CCN(c5ncc(C(=O)N[C@H]6CC[C@H](Oc7ccc(C#N)c(Cl)c7)CC6)cn5)CC4)cc31)C(=O)N(C1CCC(=O)NC1=O)C2=O (stereo partly drawn) [Compound 220],0.025 to 0.1
0.01 to 0.025,Cn1c2c(c3ccc(OC4CCN(CC5CCN(c6ccc(C(=O)N[C@H]7C(C)(C)[C@H](Oc8ccc(C#N)c(Cl)c8)C7(C)C)nn6)CC5)CC4)cc31)C(=O)N(C1CCC(=O)NC1=O)C2=O (stereo partly drawn) [Compound 221],–
0.01 to 0.025,Cn1c2c(c3ccc(OC4CCN(CC5CCN(c6ccc(C(=O)N[C@H]7C(C)(C)[C@@H](Oc8ccc(C#N)c(Cl)c8)C7(C)C)cn6)CC5)CC4)cc31)C(=O)N(C1CCC(=O)NC1=O)C2=O (stereo partly drawn) [Compound 222],–
